Experimental data: patent publication US20200376138A1, “LIPID NANO PARTICLE COMPLEX COMPRISING APTIDE FUSED WITH CELL PENETRATING MATERIALS AND USE SAME” (Korea Advanced Institute of Science and Technology, priority 2019, published 2020)
pKd: −log10 of the molar value. Ends that are not written are not given here.

Key:
[1] = tested on: psoriasis animal model; experiment: Inhibitory effect on inflammation in imiquimod-induced psoriasis animal model; format: in vivo, mouse; conditions: day 7
Procedure: The nanoparticle complex prepared in Example 3 was applied on the skin of a psoriasis animal model and the inhibitory effect of the complex on inflammation caused by psoriasis was investigated. First, the hair of the ear of the mouse was removed, and imiquimod was continuously treated at the concentration of 20 mg/cm^2 for 6 days from the next day to induce psoriasis. On the other hand, on the 2nd to 6th day of the treatment of imiquimod, the nanoparticle complex of Example 3 or Comparative Example 3 was applied in a total amount of 100 μg, 50 μg per time. On the day when imiquimod and the treatment drug were treated together, the treatment drug was applied 4 hours before and after the application of imiquimod to prevent the interaction between the drugs. At this time, the groups treated with Vaseline and DW were used as the negative control, and the group applied with clobetasol propionate (CLQ) at the concentration of 20 mg/cm^2 was used as the positive control. The application of the nanoparticle complex was completed by day 6, and the inhibitory effect on inflammation was confirmed using the animal model on day 7 (FIG. 14). Particularly, the inhibitory effect on inflammation was confirmed by measuring the thickness of the ear of the animal model, the punch biopsy weight, tissue H&E test, ELISA after tissue crushing, and the extracted spleen weight. […]

[2] = tested on: MLE12 cells; experiment: Epithelial-to-myofibroblast differentiation, vimentin FACS after TGF-β; format: cell-based
[3] = target: STAT3 protein (Homo sapiens, UniProt P40763); experiment: Binding of the aptide to STAT3 protein; conditions: read-out: affinity of binding to STAT3 protein
Procedure: The aptide according to the present invention can be an aptide that specifically binds to STAT3 (signal transducer and activator of transcription 3) protein, and can specifically be composed of the amino acid sequence represented by SEQ. ID. NO: 2. the aptide for STAT3 protein is stable with a size of about 5 kDa, and can bind to STAT3 protein with a high affinity of 200 nM. The aptide for STAT3 protein can inhibit the activation of STAT3 protein by binding to SH2 domain of STAT3 protein and suppressing the phosphorylation. This mechanism may have less effect on an inaccurate target than a conventional JAK inhibitor that inhibits the activation of STAT3 protein using the JAK inhibitory mechanism.

[4] = tested on: RAW264.7 cells; experiment: M2 polarization of IL-10 stimulated macrophages, CD163 FACS; format: cell-based, mouse; conditions: 20 μM, IL-10 stimulation 48 h
Procedure: To perform FACS analysis, mouse macrophage cell line (RAW264.7) was seeded in a 6-well plate at 2×10^5 cells/well density and incubated overnight for stabilization. In order to induce M2-type polarization, the samples were stimulated with IL-10 for 48 h in a 37° C.-maintained, 5% CO2 incubator. PBS, APTscr-9R(20 μM), and APTstat3-9R(20 μM) were simultaneously accordingly added for co-treatment. After the incubation, the specimens were collected and incubated for 30 min with 10% BSA in PBS to block non-specific binding of antibodies. After blocking, the samples were washed with three changes of 1×PBS for 5 min each. The collected specimens were resuspended in a 1 mL of separation buffer. The cells were collected in the filter tubes with strainer ([…]). After buffer removal, direct immunostaining was performed using phycoerythrin-cojugated CD163 monoclonal primary antibody (Invitrogen, Waltham, Mass., USA) at […] with 90 min incubation at 4° C. Upon the incubation, the cells were once again washed with three changes of 1×PBS for 5 min. […] The samples (20,000 cells) were analyzed using a LSR Fortessa™ high-performance multi-parameter flow cytometer (BD Bioscience, San Jose, Calif., USA) processed with FlowJo software (Tree Star Inc., San Carlos, Calif., USA).

[5] = tested on: MLE12 lung epithelial cells; experiment: Lung epithelial cell uptake (confocal, FACS); format: cell-based; conditions: 20 μM, 4 h
Procedure: In vitro cell uptake of FITC-APTstat3-9R and FITC-APTstat3-9R-DLNPs was determined by confocal microscopy imaging and FACS analysis. For confocal imaging, MLE12 cells were seeded on sterile cover glass in 12-well plate at 5×10^5 cells/well density followed by overnight incubation. The cells were treated with PBS, FITC-APTstat3-9R (20 μM), or FITC-APTstat3-9R-DLNPs (20 μM) for 4 h. The samples were washed twice with 1×PBS to discard free aptides. Subsequent sample preparation and analysis were described previously in in vitro macrophage polarization analysis section. For FACS experiment, MLE 12 cells were seeded in a 6-well plate at 3×10^5 cells/well density and incubated overnight for stabilization. The samples were treated with PBS, FITC-APTstat3-9R (20 μM), or FITC-APTstat3-9R-DLNPs (20 μM) for 4 h, washed, and collected using trypsin. The following steps were previously detailed in in vitro macrophage polarization analysis.

Chain of STAT3 protein (P40763 whole entry, species assumed, the tested form may be a part): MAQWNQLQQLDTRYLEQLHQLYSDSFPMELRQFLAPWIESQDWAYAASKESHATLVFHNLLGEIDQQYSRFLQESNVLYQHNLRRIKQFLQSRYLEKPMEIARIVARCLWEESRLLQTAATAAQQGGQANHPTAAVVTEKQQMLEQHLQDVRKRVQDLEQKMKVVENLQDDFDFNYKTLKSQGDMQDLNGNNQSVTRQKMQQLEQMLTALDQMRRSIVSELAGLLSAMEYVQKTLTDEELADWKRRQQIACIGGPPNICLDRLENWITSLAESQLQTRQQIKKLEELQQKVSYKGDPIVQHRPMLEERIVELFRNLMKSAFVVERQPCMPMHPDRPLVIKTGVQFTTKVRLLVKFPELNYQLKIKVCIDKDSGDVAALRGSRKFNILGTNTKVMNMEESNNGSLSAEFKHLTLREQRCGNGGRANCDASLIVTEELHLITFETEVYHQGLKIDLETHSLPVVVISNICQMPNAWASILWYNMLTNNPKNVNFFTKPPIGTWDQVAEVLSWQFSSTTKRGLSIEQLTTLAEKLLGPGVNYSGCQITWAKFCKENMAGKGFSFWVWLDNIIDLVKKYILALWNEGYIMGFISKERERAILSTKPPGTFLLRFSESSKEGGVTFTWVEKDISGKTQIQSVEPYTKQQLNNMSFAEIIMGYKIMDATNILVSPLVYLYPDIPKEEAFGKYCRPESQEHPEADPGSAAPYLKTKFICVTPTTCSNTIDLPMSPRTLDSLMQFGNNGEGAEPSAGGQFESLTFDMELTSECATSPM

`CCC(=O)O[C@]1(C(=O)CCl)[C@@H](C)C[C@H]2[C@@H]3CCC4=CC(=O)C=C[C@]4(C)[C@@]3(F)[C@@H](O)C[C@@]21C` [CLQ, clobetasol propionate] was tested, and the “size and weight of the spleen” value [1] was “shrivelled”.

For “APTscr-9R: control aptide, SEQ ID NO:9; b173 calls it a lipid nanoparticle complex prepared as Example 3 with this aptide (HASDRNGSWTWENGKWTWKGLHEQSD; also: part of a lipid nanoparticle complex) [reference compound]”, the “vimentin marker level after stimulation” value [2] was “vastly increased”.

Work on “HGFQWPGSWTWENGKWTWKGAYQFLK [aptide for STAT3 protein]” yielded a pKd [3] of 6.70.

In the case of “HGFQWPGSWTWENGKWTWKGAYQFLKGGGGSRRRRRRRRR (Aptide against STAT3 fused with nona-arginine) [APTstat3-9R]”, the “vimentin marker level after stimulation” value [2] was “fairly decreased”, the “reduction of vimentin level compared to PBS treated group” value ([2]; TGF-β stimulation) was “approximately 29%” and the “increase in CD163 level (M2 macrophage specific marker)” value [4] was “not upregulated”. The “uptake into MLE 12 lung epithelial cells (confocal images)” value [5] was “uptaken”.
